In patent publication US20220296635A1 (Board of Regents, The University of Texas System, priority 2013, published 2022):

How the values were obtained:
[1] = system: Bone marrow stromal cells (BMSCs); experiment: Calcium nodule formation in BMSC cultures (Von Kossa staining); type: cell-based, Sprague-Dawley rats; settings: 12 days of osteogenic induction
Protocol: Methods of promoting bone growth according to some embodiments described herein were carried out as follows. Bone marrow stromal cells (BMSCs) derived from 6 week old male Sprague-Dawley rats were cultured in growth medium containing Minimum Essential Medium Alpha (αMEM) supplemented with 10% (V/V) fetal bovine serum (FBS), 0.25 μg/mL Fungizone, and 1% (V/V) penicillin and streptomycin in 6-well plates at a density of 2×10^5 cells/well (Day 0). […] After 12 days of osteogenic induction, the BMSCs cultures were stained with Von Kossa staining and imaged by optical microscopy. The numbers of calcium nodules per well were counted in the inverted microscope. The total area of the calcium nodules was also calculated. FIG. 6A illustrates microscope images of Von Kossa staining. FIG. 6B illustrates the number of observed calcium nodules. FIG. 6C illustrates the total area of the calcium nodules.

[2] = system: osteosarcoma cells (Saos-2 cells); experiment: Saos-2 cell proliferation (MTT assay); type: cell-based
Protocol: Methods of inhibiting cancer growth according to some embodiments described herein were carried out as follows. […] Human mesenchymal stem cells (hMSCs) (Lonza Walkersville Inc., USA) were cultured in growth medium composed of Dulbecco's Modified Eagle's Medium (DMEM) supplemented with 10% FBS and 1% penicillin/streptomycin and then seeded in a 96-well plates at a density of 10^4 cells/mL after 80-90% confluence. […] The hMSCs were incubated with the citrate-supplemented media at 37° C. with 5% CO2. Media were changed every other day. […] After incubating at 37° C. for 4 hrs in MTT working solution, the hMSCs in the 96-well plates were submerged in dimethylsulfoxide (DMSO) for 15 minutes on an orbital shaker under dark conditions. The 96-well plates were then placed on a Micro-plate Reader to obtain absorbance values at 595 nm. In addition, live/dead staining was carried out at pre-determined time points (1 day, 4 days, and 7 days). The hMSCs were stained with live/dead working solution (Life Technologies Inc., USA) for 30 minutes and then observed under a Nikon Inverted Fluorescence Microscope to determine cell viability.
The hMSCs were cultured as described above. The Saos-2 cells were cultured in McCoy's 5A medium (Lonza Walkersville Inc., USA) supplemented with 10% FBS and 1% penicillin/streptomycin. […]

[3] = system: osteopontin (OPN); experiment: Osteopontin protein level in hMSCs by Western Blot; type: cell-based, Human; settings: 20 μM, 200 μM or 2000 μM citrate; 7 days and 14 days
Protocol: (§1) Methods of promoting bone growth according to some embodiments described herein were carried out as follows. Human mesenchymal stem cells (hMSCs) (Lonza Walkersville Inc., USA) were cultured in Dulbecco's Modified Eagle's Medium (DMEM) supplemented with 10% FBS and 1% penicillin and streptomycin. For differentiation, hMSCs were switched to an osteogenic medium (OGM) comprising the previous DMEM-based medium further supplemented with 10^−7 M β-glycerophosphate and 50 μM ascorbic acid-2-phosphate. The hMSC cells were seeded at a density of 10^4 cells/mL after 80-90% confluence in 96-well plates. […] Media were changed every other day.

[4] = system: Human mesenchymal stem cells (hMSCs); experiment: Calcium deposit formation in differentiated hMSC cultures (Von Kossa staining); type: cell-based; settings: 20 μM citrate, osteogenic medium; 7, 14 and 21 days
Protocol: as §1, with “For differentiation, hMSCs were switched to an osteogenic medium (OGM) comprising the previous DMEM-based medium further supplemented with 10^−7 M β-glycerophosphate and 50 μM ascorbic acid-2-phosphate.” left out

O=C(O)CC(O)(CC(=O)O)C(=O)O [citrate, citric acid]
number and size of calcium nodules ([1]; citrate concentration of 20 μM): induced the highest number of calcium nodules
calcium nodule formation ([1]; citrate-supplemented osteogenic media (2 μM to 5 mM citric acid)): promoted calcium module formation in a dose-dependent manner
Saos-2 cell proliferation ([2]; concentrations above 800 μM, 1 day and 4 days): inhibit Saos-2 cell proliferation
Saos-2 cell killing ([2]; concentrations above 2000 μM): most Saos-2 cells were killed
OPN expression [3]: closely associated in a dose-dependent relationship
calcium deposit formation [4]: able to promote calcium deposit formation
